For eight compounds, GI50 and TGI results are on record in PubChem BioAssay (NCI).

Holding throughout (test): NCI tumour cell line growth inhibition, 48 h
Assay [1] has as its system NCI-H23 lung.
In assay [2] the test system is A549 NSCLC.
In assay [3] the test system is CCRF-CEM leukemia.
Assay [4] concerns SNB-75 CNS.
In assay [5] the test system is MDA-MB-231 breast.
Assay [6] relates to SK-MEL-2 melanoma.
Assay [7] deals with SK-MEL-5 melanoma.
In assay [8] the test system is TK-10 renal.
Assay [9] relates to SK-MEL-28 melanoma.
Assay [10] concerns M14 melanoma.

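Test compounds were applied to cells in 96-well plates for 48 hours at 5 doses. Abbreviation: GI50, concentration required for 50% inhibition of growth. At the TGI there is no net growth.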

Take `COc1cc(/C=C2\C(=O)Nc3ccc(N(C)C)cc32)cc(OC)c1OC`: the GI50 was 3.07 µM in assay [1]; 3.86 µM in assay [2]; 2.28 µM in assay [3]; 1.74 µM in [4]; 4.26 µM in assay [5]; 2.77 µM in assay [6]. Moreover, the GI50 in assay [7] is 2.75 µM; in [8], 6.42 µM; in assay [9] it was 5.87 µM. Besides, the TGI was above 100 µM in [1]; 35.9 µM in assay [2]; 10.1 µM in [3]; 6.33 µM in assay [4]; above 63.8 µM in [5]; 8.31 µM in assay [6]. For the same compound, the values for the TGI in assay [7], in [8] and in assay [9] were 24.6 µM, 40.6 µM and above 100 µM, respectively.
Turning to `C=C1C(=O)O[C@H]2[C@H]1CC/C(COC(=O)c1cc3cc(Cl)ccc3[nH]1)=C\CC[C@@]1(C)O[C@@H]21`, the GI50 in [10] is 1.47 µM; in assay [1] it was 1.63 µM; in assay [2] it was 1.69 µM; in assay [3], 0.394 µM; in assay [4] it was 0.576 µM; in [5], 1.32 µM. Further, the GI50 in assay [6] is 1.73 µM; in assay [7], 1.91 µM; in [8], 1.75 µM; in assay [9], 1.58 µM. The TGI is 3.4 µM in assay [10]; 3.68 µM in assay [1]; 3.31 µM in assay [2]; 1.61 µM in assay [3]; 2.07 µM in [4]; 2.85 µM in assay [5]. Moreover, the TGI is 3.59 µM in [6], 3.54 µM in assay [7], 3.12 µM in [8] and 3.1 µM in assay [9].
With `O=C(O)c1ccc2c(c1)CCCC(c1ccc(Cl)cc1Cl)=C2c1ccc(O[C@H]2CCN(CCCF)C2)cc1`, the GI50 in assay [10] was 13.2 µM; in assay [1], 13.2 µM; in assay [2], 6.7 µM; in assay [3], 10.8 µM; in assay [4], 12.1 µM; in assay [5], 16.4 µM. The GI50 is 14.3 µM in [6], 10.8 µM in assay [7], 13.4 µM in assay [8] and 11.5 µM in assay [9]. Also, the TGI in assay [10] worked out at 28.7 µM; in [1], 29.3 µM; in [2], 24.1 µM; in assay [3] it was 27.6 µM; in assay [4], 25.3 µM; in [5], 31.6 µM. For the same compound, the TGI in assay [6] was found to be 30.6 µM; in assay [7] it was 23.2 µM; in assay [8] it was 27.6 µM; in [9], 25.1 µM.
With `O=C1c2cc(Cl)ccc2-c2c1c1ccc([N+](=O)[O-])cc1c(=O)n2CCCBr`, the GI50 in [10] is 3.91 µM; in assay [1], 8.27 µM; in [2], 5.85 µM; in assay [3] it was 0.625 µM; in assay [4], 5.96 µM; in [5], above 100 µM. For the same compound, the GI50 was 82.6 µM in [6], 3.21 µM in assay [7], 61.9 µM in assay [8] and 33.5 µM in assay [9]. Also, the TGI is 64.2 µM in [10]; above 100 µM in assay [1]; above 100 µM in assay [2]; above 100 µM in assay [3]; 64.2 µM in assay [4]; above 100 µM in assay [5]. In addition, the TGI in [6] is above 100 µM; in assay [7], 24.3 µM; in assay [8] it was above 100 µM; in assay [9] it was above 100 µM.
Regarding `Cc1ccc(-c2csc(NC(=O)CN3CCN(c4cc5c(cc4F)c(=O)c(C(=O)O)cn5C4CC4)CC3)n2)cc1`, the GI50 in [10] is 1.63 µM; in [1], 0.39 µM; in assay [2] it was 0.433 µM; in assay [3] it was 0.569 µM; in assay [4], 0.448 µM; in assay [5] it was 2.08 µM. The GI50 was 1.33 µM in assay [6], 1.02 µM in assay [7] and 1.94 µM in [9]. Moreover, the TGI in assay [10] was 32.9 µM; in [1], 13.3 µM; in assay [2] it was 13.9 µM; in [3], above 100 µM; in assay [4], 11.2 µM; in assay [5] it was 13.7 µM. For the same compound, the TGI in [6] is 4.09 µM; in [7], 2.89 µM; in assay [9], above 100 µM.
With `Nc1ccccc1C#C/C=C\C#Cc1ccccc1`, the GI50 in assay [10] was 15.8 µM; in assay [1], 14.8 µM; in [2], 17.8 µM; in assay [3] it was 0.804 µM; in assay [4], 13.7 µM; in [5], 11.6 µM. Further, the GI50 was 25.5 µM in [6], 5 µM in [7] and 11.7 µM in [9]. The TGI in [10] came to 32.4 µM; in assay [1] it was 35.9 µM; in [2] it was 77.7 µM; in assay [3] it was 29.9 µM; in assay [4] it was 58.9 µM; in [5] it was 26.8 µM. For the same compound, the TGI in assay [6] stood at 98.3 µM; in assay [7], 18.5 µM; in assay [9], 27.1 µM.
In the case of `CC[PH+](CC)CC.O=COC1OC([S-])C(OC=O)C(OC=O)C1OC=O.[Au+]` (stereo not given), the GI50 in assay [10] is 1.15 µM; in assay [1] it was 1.47 µM; in assay [3] it was 0.64 µM; in assay [4], 0.374 µM; in [5], 1.46 µM; in assay [6], 1.47 µM. The GI50 in assay [7] was 1.27 µM; in assay [8], 1.74 µM; in [9] it was 0.907 µM. Moreover, the TGI stood at 2.81 µM in assay [10]; 3.22 µM in assay [1]; 4.1 µM in assay [3]; 1.77 µM in [4]; 2.82 µM in [5]; 3.38 µM in [6]. Also, the TGI in assay [7] stood at 2.63 µM; in assay [8] it was 3.39 µM; in assay [9], 2.15 µM.
`COc1cc(-c2cn(-c3ccc(Cl)c(Cl)c3)c(=O)n2C(C)=O)cc(OC)c1OC`: the GI50 was 16.7 µM in [10]; 15 µM in [2]; 16.1 µM in assay [3]; 9.64 µM in assay [4]; 10.4 µM in assay [5]; 10.6 µM in assay [6]. For the same compound, the GI50 in assay [7] was 12.7 µM; in assay [8], 12.2 µM; in assay [9] it was 11.6 µM. For the same compound, the TGI in assay [10] was determined as 45.7 µM; in assay [2], 41 µM; in [3], 59.9 µM; in assay [4] it was 33.8 µM; in [5], 26.2 µM; in [6] it was 25.3 µM. The values for the TGI in assay [7], in assay [8] and in assay [9] were 25.3 µM, 31 µM and 29.6 µM, respectively.
